Measured values taken from PubChem BioAssay (NCI).
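In this assay, cells in 96-well plates receive the compound at five concentrations for 48 hours. Endpoints are linearly interpolated between the surrounding concentrations. GI50: concentration for 50% inhibition of growth. TGI denotes the concentration required for complete inhibition of growth.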

test system: 786-0 renal; assay: NCI-60 cell line screen, 48 h

Structure (SMILES) | TGI [µM]
O=c1c2cc(Br)cc(Br)c2nc(CCCl)n1CCO | > 100
CC(=O)[C@@]1(O)CC[C@H]2[C@@H]3C[C@H](C)C4=CC(=O)C=C[C@]4(C)[C@@]3(F)[C@@H](O)C[C@@]21C | > 100
Nc1ccn(C2CCC(CO)O2)c(=O)n1 (stereo unspecified) | > 1000
O=C1CCCC[C@H]1[C@H]1CCC[C@@H]([C@H]2CCCCC2=O)C1=O | > 100
O=C1NC2OC(C(O)CO)C(O)C2O1 (stereo unspecified) | > 100
C/C(CC(=O)NCCc1ccccc1)=N\NC(=O)C[n+]1ccccc1 | > 100

test system: A498 renal; assay: NCI-60 cell line screen, 48 h

Structure (SMILES) | TGI [µM]
O=c1c2cc(Br)cc(Br)c2nc(CCCl)n1CCO | > 100
CC(=O)[C@@]1(O)CC[C@H]2[C@@H]3C[C@H](C)C4=CC(=O)C=C[C@]4(C)[C@@]3(F)[C@@H](O)C[C@@]21C | > 100
O=C1CCCC[C@H]1[C@H]1CCC[C@@H]([C@H]2CCCCC2=O)C1=O | > 100
O=C1NC2OC(C(O)CO)C(O)C2O1 (stereo unspecified) | > 100
C/C(CC(=O)NCCc1ccccc1)=N\NC(=O)C[n+]1ccccc1 | > 100

test system: A549 NSCLC; assay: NCI-60 cell line screen, 48 h

Structure (SMILES) | TGI [µM] | GI50 [µM]
O=c1c2cc(Br)cc(Br)c2nc(CCCl)n1CCO | > 100 | –
CC(=O)[C@@]1(O)CC[C@H]2[C@@H]3C[C@H](C)C4=CC(=O)C=C[C@]4(C)[C@@]3(F)[C@@H](O)C[C@@]21C | > 100 | –
Nc1ccn(C2CCC(CO)O2)c(=O)n1 (stereo unspecified) | > 1000 | > 1000
O=C1CCCC[C@H]1[C@H]1CCC[C@@H]([C@H]2CCCCC2=O)C1=O | > 100 | –
O=C1NC2OC(C(O)CO)C(O)C2O1 (stereo unspecified) | > 100 | –
C/C(CC(=O)NCCc1ccccc1)=N\NC(=O)C[n+]1ccccc1 | > 100 | –

test system: ACHN renal; assay: NCI-60 cell line screen, 48 h

Structure (SMILES) | TGI [µM]
O=c1c2cc(Br)cc(Br)c2nc(CCCl)n1CCO | > 100
CC(=O)[C@@]1(O)CC[C@H]2[C@@H]3C[C@H](C)C4=CC(=O)C=C[C@]4(C)[C@@]3(F)[C@@H](O)C[C@@]21C | > 100
Nc1ccn(C2CCC(CO)O2)c(=O)n1 (stereo unspecified) | > 1000
O=C1CCCC[C@H]1[C@H]1CCC[C@@H]([C@H]2CCCCC2=O)C1=O | > 100
O=C1NC2OC(C(O)CO)C(O)C2O1 (stereo unspecified) | > 100
C/C(CC(=O)NCCc1ccccc1)=N\NC(=O)C[n+]1ccccc1 | > 100

test system: BT-549 breast; assay: NCI-60 cell line screen, 48 h

Structure (SMILES) | TGI [µM]
CC(=O)[C@@]1(O)CC[C@H]2[C@@H]3C[C@H](C)C4=CC(=O)C=C[C@]4(C)[C@@]3(F)[C@@H](O)C[C@@]21C | > 100
Nc1ccn(C2CCC(CO)O2)c(=O)n1 (stereo unspecified) | > 1000

test system: CAKI-1 renal; assay: NCI-60 cell line screen, 48 h

Structure (SMILES) | TGI [µM] | GI50 [µM]
O=c1c2cc(Br)cc(Br)c2nc(CCCl)n1CCO | > 100 | –
CC(=O)[C@@]1(O)CC[C@H]2[C@@H]3C[C@H](C)C4=CC(=O)C=C[C@]4(C)[C@@]3(F)[C@@H](O)C[C@@]21C | > 100 | –
Nc1ccn(C2CCC(CO)O2)c(=O)n1 (stereo unspecified) | > 1000 | > 1000
O=C1CCCC[C@H]1[C@H]1CCC[C@@H]([C@H]2CCCCC2=O)C1=O | > 100 | –
O=C1NC2OC(C(O)CO)C(O)C2O1 (stereo unspecified) | > 100 | –

test system: CCRF-CEM leukemia; assay: NCI-60 cell line screen, 48 h

Structure (SMILES) | TGI [µM] | GI50 [µM]
O=c1c2cc(Br)cc(Br)c2nc(CCCl)n1CCO | > 100 | –
CC(=O)[C@@]1(O)CC[C@H]2[C@@H]3C[C@H](C)C4=CC(=O)C=C[C@]4(C)[C@@]3(F)[C@@H](O)C[C@@]21C | > 100 | –
Nc1ccn(C2CCC(CO)O2)c(=O)n1 (stereo unspecified) | > 1000 | 108
O=C1CCCC[C@H]1[C@H]1CCC[C@@H]([C@H]2CCCCC2=O)C1=O | > 100 | –
O=C1NC2OC(C(O)CO)C(O)C2O1 (stereo unspecified) | > 100 | –

test system: COLO 205 colon; assay: NCI-60 cell line screen, 48 h

Structure (SMILES) | TGI [µM] | GI50 [µM]
O=c1c2cc(Br)cc(Br)c2nc(CCCl)n1CCO | > 100 | –
CC(=O)[C@@]1(O)CC[C@H]2[C@@H]3C[C@H](C)C4=CC(=O)C=C[C@]4(C)[C@@]3(F)[C@@H](O)C[C@@]21C | > 100 | –
Nc1ccn(C2CCC(CO)O2)c(=O)n1 (stereo unspecified) | > 1000 | > 1000
O=C1CCCC[C@H]1[C@H]1CCC[C@@H]([C@H]2CCCCC2=O)C1=O | > 100 | –
O=C1NC2OC(C(O)CO)C(O)C2O1 (stereo unspecified) | > 100 | –
C/C(CC(=O)NCCc1ccccc1)=N\NC(=O)C[n+]1ccccc1 | > 100 | –

test system: DLD-1 colon; assay: NCI-60 cell line screen, 48 h

Structure (SMILES) | TGI [µM]
O=c1c2cc(Br)cc(Br)c2nc(CCCl)n1CCO | > 100
